Assay results from patent US20260015350A1, “AZAQUINAZOLINE PAN-KRAS INHIBITORS” (Mirati Therapeutics, Inc., priority 2022, published 2026).

Tests used:
[1] = system: KRas-mediated phosphorylation of ERK in H727 cells; assay: Inhibition of KRas-mediated phosphorylation of ERK (Cisbio HTRF pERK), H727 cells; format: cell-based; details: Homo sapiens; for IC50: NCI-H727, H727 cells, HTRF pERK; for inhibition at 0.1 µM: NCI-H727, 3 h, single point, 100 nM compound, 3 hrs, H727 cells
In short: (§1)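 Cells were seeded at 6,000 per well and treated for 3 hrs with compound in a 10-dose, 3-fold series from 10 uM (0.8% final DMSO), with 0.2 uM Trametinib as Min control. Lysates made at 4° C over 40 mins were incubated 2 hrs at room temperature with d2- and Cryptate-labelled antibodies, then read by HTRF.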

[2] = system: KRas-mediated phosphorylation of ERK in H460 cells; assay: Inhibition of KRas-mediated phosphorylation of ERK (Cisbio HTRF pERK), H460 cells; format: cell-based; details: Homo sapiens; for inhibition at 0.1 µM: NCI-H460, 3 h, single point, 100 nM compound, 3 hrs; for IC50: NCI-H460, HTRF pERK
Experimental: (§2) Inhibition of KRas Phosphorylation of ERK (HTRF) by Exemplary Compounds of Formula (I) Cisbio HTRF Advanced PERK Assay Catalog #64[…] […] Add 10 mL of media to stop trypsinizing. Pipette the cells into a conical bottom 50 mL centrifuge tube and centrifuge 5 min×1000 rpm. […] Re-suspend the cell pellet in media, take a cell count, and then adjust the cell density using fresh media. […] Seed 6,000 cells into cell culture plate with 50 μL media. […] Use Tecan to complete the compound addition. Compounds start from 10 uM top, 3-fold dilution, and 10 doses. The final DMSO concentration is 0.8%. Dispensed 0.2 uM Trametinib as Min control. […] Incubate cell plate for 3 hrs in the incubator. […] Dilute 1 volume of 4× lysis buffer with 3 volumes of deionized water. […] Keep lysis buffer on the ice. […] At the end of the compound treatment, flick-off the media. […] Add 35 μL of lysis buffer per well using a Multidrop Combi. Then place on a plate agitator shaking at 300 rpm at 4° C. for 40 mins. […] Make up the HTRF antibody buffer. For each assay plate, mix 50 μL of d2-conjugate antibody with 950 μL of detection buffer. Similarly, mix 50 μL of Cryptate antibody with 950 μL of detection buffer. Then mix the two diluted antibodies together. […] Dispense 3.4 μL the antibody buffer to wells of an empty assay plate. Seal the plate and centrifuge plate 30 sec×1000 rpm. […] At the end of the 4° C. lysis, centrifuge the lysate plates 3 mins×1500 rpm. […] Use the Bravo to transfer 13.6 μL of lysate from cell culture plate to assay plate. Then incubate assay plate for 2 hrs at room temperature. 8. At the end of incubation, read plate on the Envision after centrifuging plate 30 sec×1000 rpm.

KRas^G12V = target: T1, KRas^G12V (Homo sapiens, UniProt P01116, G12V); assay: KRas binding assay (TR-FRET tracer displacement), KRas G12V
T1 construct: Biotinylated KRas (corresponding to amino acids 1-169, produced at Accelegan Inc.); biotin (biotinylated); purchased Accelegan Inc
T1 sequence (P01116 1-169 isoform P01116-2 G12V): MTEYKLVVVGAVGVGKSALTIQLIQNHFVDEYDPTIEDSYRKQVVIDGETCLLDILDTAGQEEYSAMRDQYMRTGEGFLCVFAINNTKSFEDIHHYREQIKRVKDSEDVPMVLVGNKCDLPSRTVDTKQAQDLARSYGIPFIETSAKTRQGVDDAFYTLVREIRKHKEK

[3] = system: KRas-mediated phosphorylation of ERK in HCT116 cells; assay: Inhibition of KRas-mediated phosphorylation of ERK (Cisbio HTRF pERK), HCT116 cells; format: cell-based; details: Homo sapiens; for inhibition at 0.1 µM: HCT-116, 3 h, single point, 100 nM compound, 3 hrs; for IC50: HCT-116, HTRF pERK
Experimental: as §2

KRas^G12D = target: T2, KRas^G12D (Homo sapiens, UniProt P01116, G12D); assay: KRas binding assay (TR-FRET tracer displacement), KRas G12D
T2 construct: Biotinylated KRas (corresponding to amino acids 1-169, produced at Accelegan Inc.); biotin (biotinylated); purchased Accelegan Inc
T2 sequence (P01116 1-169 isoform P01116-2 G12D): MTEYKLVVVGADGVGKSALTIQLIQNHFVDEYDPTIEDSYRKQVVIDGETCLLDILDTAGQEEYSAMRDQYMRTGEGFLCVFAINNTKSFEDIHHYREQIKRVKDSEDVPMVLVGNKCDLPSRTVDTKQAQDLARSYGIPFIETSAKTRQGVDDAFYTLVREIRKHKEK

KRas^G12R = target: T3, KRas^G12R (Homo sapiens, UniProt P01116, G12R); assay: KRas binding assay (TR-FRET tracer displacement), KRas G12R
T3 construct: Biotinylated KRas (corresponding to amino acids 1-169, produced at Accelegan Inc.); biotin (biotinylated); purchased Accelegan Inc
T3 sequence (P01116 1-169 isoform P01116-2 G12R): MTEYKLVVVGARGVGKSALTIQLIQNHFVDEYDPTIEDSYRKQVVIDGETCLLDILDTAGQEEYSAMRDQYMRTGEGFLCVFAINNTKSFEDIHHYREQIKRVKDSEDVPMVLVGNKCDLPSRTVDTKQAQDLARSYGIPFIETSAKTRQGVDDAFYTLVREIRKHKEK

[4] = system: KRas-mediated phosphorylation of ERK in AsPC-1 cells; assay: Inhibition of KRas-mediated phosphorylation of ERK (Cisbio HTRF pERK), AsPC-1 cells; format: cell-based; details: Homo sapiens; for IC50: ASPC1, AsPC-1 cells, HTRF pERK; for inhibition at 0.1 µM: ASPC1, 3 h, single point, 100 nM compound, 3 hrs, AsPC-1 cells
In short: as §1

[5] = system: KRas-mediated phosphorylation of ERK in A549 cells; assay: Inhibition of KRas-mediated phosphorylation of ERK (Cisbio HTRF pERK), A549 cells; format: cell-based; details: Homo sapiens; for IC50: HTRF pERK
Experimental: as §2

[6] = system: KRas-mediated phosphorylation of ERK in H358 cells; assay: Inhibition of KRas-mediated phosphorylation of ERK (Cisbio HTRF pERK), H358 cells; format: cell-based; details: Homo sapiens; for IC50: NCI-H358, HTRF pERK
Experimental: as §2

Compound | IC50 [1] | IC50 (KRas^G12V) | IC50 (KRas^G12D) | IC50 (KRas^G12R) | IC50 [4] | IC50 [2] | IC50 [3] | IC50 [5] | IC50 [6] | inhibition at 0.1 µM [2] | inhibition at 0.1 µM [3] | inhibition at 0.1 µM ([6]; NCI-H358, 3 h, single point, 100 nM compound, 3 hrs) | inhibition at 0.1 µM ([5]; A549, 3 h, single point, 100 nM compound, 3 hrs) | inhibition at 0.1 µM [1] | inhibition at 0.1 µM [4]
CCc1c(F)ccc2cc(O)cc(-c3ncc4c(N5CCC[C@@](C)(O)C5)nc(OCC5(CN)CC5)nc4c3F)c12 [Example 536, (R)-1-(2-((1-(aminomethyl)cyclopropyl)methoxy)-7-(8-ethyl-7-fluoro-3-hydroxynaphthalen-1-yl)-8-fluoropyrido[4,3-d]pyrimidin-4-yl)-3-methylpiperidin-3-ol] | 3440 nM | 5 nM | 5 nM | 9 nM | 4550 nM |  |  |  |  | -9% | 9% |  |  |  | 
CCc1c(F)ccc2cc(O)cc(-c3ncc4c(N5CCC[C@H](C)C5)nc(OC[C@@]56CCCN5C[C@H](F)C6)nc4c3F)c12 [Example 541, 5-ethyl-6-fluoro-4-(8-fluoro-2-(((2R,7aS)-2-fluorohexahydro-1H-pyrrolizin-7a-yl)methoxy)-4-((S)-3-methylpiperidin-1-yl)pyrido[4,3-d]pyrimidin-7-yl)naphthalen-2-ol] | 240 nM |  |  |  | 198 nM | 107 nM | 208 nM | 216 nM |  |  |  |  |  |  | 
CCc1c(F)ccc2cc(O)cc(-c3ncc4c(N5CCCC6(CCC6)C5)nc(OC[C@@]56CCCN5C[C@H](F)C6)nc4c3F)c12 [Example 549, 5-ethyl-6-fluoro-4-(8-fluoro-2-(((2R,7aS)-2-fluorotetrahydro-1H-pyrrolizin-7a(5H)-yl)methoxy)-4-(6-azaspiro[3.5]nonan-6-yl)pyrido[4,3-d]pyrimidin-7-yl)naphthalen-2-ol] | 208 nM | 4 nM | 7 nM | 8 nM | 328 nM |  |  |  |  |  |  | 3% | -6% |  | 
CCc1c(F)ccc2cc(O)cc(-c3ncc4c(NCC5(C)CC(=O)NC5=O)nc(OC[C@@]56CCCN5C[C@H](F)C6)nc4c3F)c12 (stereo partly drawn) [Example 566, 3-(((7-(8-ethyl-7-fluoro-3-hydroxynaphthalen-1-yl)-8-fluoro-2-(((2R,7aS)-2-fluorotetrahydro-1H-pyrrolizin-7a(5H)-yl)methoxy)pyrido[4,3-d]pyrimidin-4-yl)amino)methyl)-3-methylpyrrolidine-2,5-dione] | 138 nM | 3 nM | 3 nM | < 2 nM | 760 nM | 47 nM | 72 nM | 130 nM |  |  |  |  |  |  | 
CCc1c(F)ccc2cc(O)cc(-c3ncc4c(NC[C@@H]5C[C@H](CO)NC5=O)nc(OC[C@@]56CCCN5C[C@H](F)C6)nc4c3F)c12 [Example 576, (3S,5R)-3-(((7-(8-ethyl-7-fluoro-3-hydroxynaphthalen-1-yl)-8-fluoro-2-(((2R,7aS)-2-fluorotetrahydro-1H-pyrrolizin-7a(5H)-yl)methoxy)pyrido[4,3-d]pyrimidin-4-yl)amino)methyl)-5-(hydroxymethyl)pyrrolidin-2-one] | > 10000 nM | 10 nM | 45 nM | 37 nM |  |  |  |  |  | -3% | -15% |  |  | -2% | 1%

Further lines, with some results ahead:

IC50 [1] | IC50 (KRas^G12V) | IC50 (KRas^G12D) | IC50 (KRas^G12R) | IC50 [4] | IC50 [2] | IC50 [3] | IC50 [5] | IC50 [6] | Compound | inhibition at 0.1 µM [2] | inhibition at 0.1 µM [3] | inhibition at 0.1 µM ([6]; NCI-H358, 3 h, single point, 100 nM compound, 3 hrs) | inhibition at 0.1 µM ([5]; A549, 3 h, single point, 100 nM compound, 3 hrs) | inhibition at 0.1 µM [1] | inhibition at 0.1 µM [4]
245 nM |  |  |  | 1540 nM | 138 nM |  | 357 nM |  | CCc1c(F)ccc2cc(O)cc(-c3ncc4c(N5C[C@H]6C[C@@H](C5)C(=O)NC6=O)nc(OC[C@@]56CCCN5C[C@H](F)C6)nc4c3F)c12 [Example 591, (1R,5S)-7-(7-(8-ethyl-7-fluoro-3-hydroxynaphthalen-1-yl)-8-fluoro-2-(((2R,7aS)-2-fluorotetrahydro-1H-pyrrolizin-7a(5H)-yl)methoxy)pyrido[4,3-d]pyrimidin-4-yl)-3,7-diazabicyclo[3.3.1]nonane-2,4-dione] |  |  |  |  |  | 
3720 nM | 139 nM | 313 nM | 257 nM | 4640 nM |  |  |  |  | CCc1c(F)ccc2cc(O)cc(-c3ncc4c(N5CC6COCC(CO)(C5)C6(F)F)nc(OC[C@@]56CCCN5C[C@H](F)C6)nc4c3F)c12 (stereo partly drawn) [Example 645, 4-(4-(9,9-difluoro-1-(hydroxymethyl)-3-oxa-7-azabicyclo[3.3.1]nonan-7-yl)-8-fluoro-2-(((2R,7aS)-2-fluorotetrahydro-1H-pyrrolizin-7a(5H)-yl)methoxy)pyrido[4,3-d]pyrimidin-7-yl)-5-ethyl-6-fluoronaphthalen-2-ol] | 4% | 6% |  |  |  | 
149 nM |  |  |  | 32 nM |  |  |  |  | CCc1c(F)ccc2cc(O)cc(-c3ncc4c(N5CCC[C@@](C)(O)C5)nc(OCC5(CN(C)C)CC5C)nc4c3F)c12 (stereo partly drawn) [Example 702, (3R)-1-(2-((1-((dimethylamino)methyl)-2-methylcyclopropyl)methoxy)-7-(8-ethyl-7-fluoro-3-hydroxynaphthalen-1-yl)-8-fluoropyrido[4,3-d]pyrimidin-4-yl)-3-methylpiperidin-3-ol] | 61% | 37% |  |  | 7% | 56%
2 nM |  |  |  | 6 nM |  |  | 1 nM | 1 nM | C=C1CN2CCC[C@@]2(COc2nc(N3C[C@@H]4C[C@H](C3)[C@H](O)C4)c3cnc(-c4cc(O)cc5ccc(F)c(CC)c45)c(F)c3n2)C1 [Example 896, (1R,5R,6R)-3-(7-(8-ethyl-7-fluoro-3-hydroxynaphthalen-1-yl)-8-fluoro-2-(((S)-2-methylenetetrahydro-1H-pyrrolizin-7a(5H)-yl)methoxy)pyrido[4,3-d]pyrimidin-4-yl)-3-azabicyclo[3.2.1]octan-6-ol] |  |  |  |  |  | 
12 nM |  |  |  | 32 nM |  |  | 5 nM | 3 nM | C=C1CN2CCC[C@]2(COc2nc(N3C[C@@H]4C[C@H](C3)[C@H](O)C4)c3cnc(-c4cc(O)cc5ccc(F)c(CC)c45)c(F)c3n2)C1 [Example 897, (1R,5R,6R)-3-(7-(8-ethyl-7-fluoro-3-hydroxynaphthalen-1-yl)-8-fluoro-2-(((R)-2-methylenetetrahydro-1H-pyrrolizin-7a(5H)-yl)methoxy)pyrido[4,3-d]pyrimidin-4-yl)-3-azabicyclo[3.2.1]octan-6-ol] |  |  |  |  |  | 
1040 nM | 3 nM | 12 nM | 5 nM | 2380 nM |  |  |  | 461 nM | CCc1c(F)ccc2cc(O)cc(-c3ncc4c(N5CC6CCC(CC(=O)NC)(C6)C5)nc(OC[C@@]56CCCN5C[C@H](F)C6)nc4c3F)c12 (stereo partly drawn) [Example 914, 2-(3-(7-(8-ethyl-7-fluoro-3-hydroxynaphthalen-1-yl)-8-fluoro-2-(((2R,7aS)-2-fluorotetrahydro-1H-pyrrolizin-7a(5H)-yl)methoxy)pyrido[4,3-d]pyrimidin-4-yl)-3-azabicyclo[3.2.1]octan-1-yl)-N-methylacetamide] |  |  |  |  |  | 
> 10000 nM | 120 nM | 78 nM | 132 nM | > 10000 nM |  |  |  | 8970 nM | C[C@@]1(O)CCCN(c2nc(OCC34CCCN3CCC4)nc3c(F)c(-c4ccc(F)c5sc(N)c(C#N)c45)ncc23)C1 [Example 916, (R)-2-amino-7-fluoro-4-(8-fluoro-4-(3-hydroxy-3-methylpiperidin-1-yl)-2-((tetrahydro-1H-pyrrolizin-7a(5H)-yl)methoxy)pyrido[4,3-d]pyrimidin-7-yl)benzo[b]thiophene-3-carbonitrile] |  |  |  |  |  | 
